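How tested: cells in 96-well plates exposed to compound for 48 hours at five concentrations. GI50: concentration for 50% inhibition of growth.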 The source made the active and inactive calls. Rule as the data show it: active = GI50 up to about 1.1 µM and inactive = higher.
How the values were obtained:
Assay in all cases: growth of human tumour cells (NCI), 48 h
SNB-78 = system: SNB-78
XF498 = system: XF498
LXFL 529 = system: LXFL 529
DLD-1 = system: DLD-1
DMS-273 = system: DMS-273
M19-MEL = system: M19-MEL
DMS-114 = system: DMS-114
HOP-18 = system: HOP-18
RXF 631 = system: RXF 631

SMILES | GI50 (SNB-78) | GI50 (XF498) | GI50 (LXFL 529) | GI50 (DLD-1) | GI50 (DMS-273) | GI50 (M19-MEL) | GI50 (DMS-114) | GI50 (HOP-18) | GI50 (RXF 631)
COc1ccccc1-c1cc(=O)c2cc(C)c(C)c(C(=O)O)c2o1 | > 100 µM (inactive) | > 100 µM (inactive) | > 100 µM (inactive) | > 100 µM (inactive) | > 100 µM (inactive) | > 100 µM (inactive) | > 100 µM (inactive) |  | 
O=c1[nH]c(=O)n(C2OC(COP(=O)(O)OP(=O)(O)OC3OC(CO)C(O)C(O)C3O)C(O)C2O)cc1F (configuration not stated) | 0.366 µM (active) | 0.277 µM (active) | 0.151 µM (active) | < 0.0119 µM (active) |  | 0.191 µM (active) | 1.13 µM (inactive) | 3.22 µM (inactive) | 0.0716 µM (active)
COc1cc(/C=C2\NC(=O)C3Cc4c(OC)c(C)c(OC)c(OC)c4C2N3C)c(OC)c(C)c1OC (configuration not stated) | > 100 µM (inactive) | > 100 µM (inactive) | > 100 µM (inactive) | > 100 µM (inactive) | > 100 µM (inactive) | > 100 µM (inactive) | > 100 µM (inactive) | > 100 µM (inactive) | > 100 µM (inactive)
Cc1c(C(=O)C/C(=N/NC(=O)C[N+](C)(C)C)C(=O)Nc2ccc(Cl)cc2)[n+]([O-])c2ccccc2[n+]1[O-] | > 100 µM (inactive) | > 100 µM (inactive) | > 100 µM (inactive) | > 100 µM (inactive) | > 100 µM (inactive) | > 100 µM (inactive) | > 100 µM (inactive) | > 100 µM (inactive) | > 100 µM (inactive)
CC1=C2C(=CC(C)(C)C2O)C(=O)C(C)(O)C12CC2 (configuration not stated) | 0.00893 µM (active) | 0.00906 µM (active) | 0.0198 µM (active) | 0.00665 µM (active) | 0.00489 µM (active) | 0.0157 µM (active) | 0.00794 µM (active) | 0.0337 µM (active) | 
COC1=CC(=O)C(Br)=CC1=O | > 10 µM (inactive) | 16.9 µM (inactive) | 17.2 µM (inactive) | 32.3 µM (inactive) | > 10 µM (inactive) | 17.7 µM (inactive) | 20.5 µM (inactive) |  | 31.6 µM (inactive)
CSc1nc2c(nc(N)n2C2OC(CO)C(O)C(O)C2O)c(=O)[nH]1 (configuration not stated) | > 100 µM (inactive) | 41.3 µM (inactive) | > 100 µM (inactive) | > 100 µM (inactive) |  | > 100 µM (inactive) | > 100 µM (inactive) | > 100 µM (inactive) | > 100 µM (inactive)
O=C(c1nc2ccc(Cl)cc2nc1O)C(O)c1ccc2c(c1)OCO2 (configuration not stated) |  | > 100 µM (inactive) | 77.6 µM (inactive) | > 100 µM (inactive) | > 100 µM (inactive) | > 100 µM (inactive) | 8.43 µM (inactive) | 12.8 µM (inactive) | > 100 µM (inactive)
COc1ccc(/C=C(\Cl)c2ccc(OC)c(OC)c2)cc1OC |  |  | > 100 µM (inactive) | > 100 µM (inactive) | > 100 µM (inactive) | > 100 µM (inactive) | > 100 µM (inactive) |  | 
O=C1N(c2ccc(Cl)cc2)C(=O)C2(SC=NN2Cc2ccccc2)N1c1ccc(Cl)cc1 (configuration not stated) | > 100 µM (inactive) | 28.6 µM (inactive) | > 100 µM (inactive) | > 100 µM (inactive) |  | > 100 µM (inactive) | 12.3 µM (inactive) | > 100 µM (inactive) | > 100 µM (inactive)
O=C(Nc1ccccc1)OCc1nc2c([nH]1)C(=O)C=CC2=O | 23.2 µM (inactive) | 17.2 µM (inactive) | 3.1 µM (inactive) | > 100 µM (inactive) | 24.2 µM (inactive) | 16 µM (inactive) |  | 10.5 µM (inactive) | 
CC(=O)O[C@H]1C(=O)O[C@@H]2C[C@H]3C(C)=CC(=O)[C@@H](O)[C@]3(C)[C@H]3[C@@]4(O)OC[C@]32[C@@H]1[C@@H](C)[C@H]4O | 0.0515 µM (active) | 0.031 µM (active) |  | 0.03 µM (active) | 0.0264 µM (active) | 0.0272 µM (active) | 0.0253 µM (active) | 0.177 µM (active) | 
CCC12C[N+]3([O-])CCc4c([nH]c5ccccc45)C(C(=O)OC)(c4cc5c(cc4OC)N(C)C4C(O)(C(=O)OC)C(OC(C)=O)C6(CC)C=CCN7CCC54C76)CC(C3)C1O2 (configuration not stated) | 0.506 µM (active) | 0.407 µM (active) | 0.656 µM (active) | 0.883 µM (active) | 0.237 µM (active) | 0.617 µM (active) | 0.36 µM (active) | 16 µM (inactive) | 
O=C(O)C1(C(=O)O)CC1 | > 100 µM (inactive) | > 100 µM (inactive) | > 100 µM (inactive) | > 100 µM (inactive) | > 100 µM (inactive) | > 100 µM (inactive) | > 100 µM (inactive) | > 100 µM (inactive) | > 100 µM (inactive)
Nc1c(C(=O)Nc2ccccc2O)[n+]([O-])c2ccccc2[n+]1[O-] | > 100 µM (inactive) |  | > 100 µM (inactive) | > 100 µM (inactive) | 32.6 µM (inactive) | 14.2 µM (inactive) | 20.5 µM (inactive) | > 100 µM (inactive) | 50.6 µM (inactive)
O=C(CSc1nnc(-c2ccc(/N=C\c3ccc(Cl)cc3)cc2)o1)Nc1cccc([N+](=O)[O-])c1 | > 100 µM (inactive) |  | > 100 µM (inactive) |  | > 100 µM (inactive) | > 100 µM (inactive) | > 100 µM (inactive) | > 100 µM (inactive) | 
O=C1C2=C(c3ccccc31)C(c1ccccc1)N1C(=O)CSC1=N2 (configuration not stated) |  | > 100 µM (inactive) | 52 µM (inactive) | > 100 µM (inactive) | 55.8 µM (inactive) | > 100 µM (inactive) | 43.1 µM (inactive) |  | 80.9 µM (inactive)
COc1cccc(N2C(=O)/C(=C/c3ccc(N(CCC#N)CCC#N)cc3)N=C2c2cc([N+](=O)[O-])ccc2Cl)c1 | > 100 µM (inactive) |  | 67.9 µM (inactive) | 60 µM (inactive) | 38.2 µM (inactive) |  | > 100 µM (inactive) | > 100 µM (inactive) | > 100 µM (inactive)
O=C(c1ccccc1)C(c1ccccc1)C1(O)C(=O)Nc2ccc(Br)cc21 (configuration not stated) | > 100 µM (inactive) |  | 19.8 µM (inactive) | 48.2 µM (inactive) | 31.6 µM (inactive) | 15.4 µM (inactive) | 21.6 µM (inactive) |  | 33.7 µM (inactive)
O=C(OCc1ccccc1)n1cccc1 | > 100 µM (inactive) | 78.2 µM (inactive) | > 100 µM (inactive) | > 100 µM (inactive) | > 100 µM (inactive) | > 100 µM (inactive) | 55.2 µM (inactive) | > 100 µM (inactive) | > 100 µM (inactive)
CN(C)C(=S)Nc1nnc(NC23CC4CC(CC(C4)C2)C3)s1.[O-][Cl+3]([O-])([O-])O | 39.2 µM (inactive) |  |  |  | 20.6 µM (inactive) | 19.6 µM (inactive) | 19.4 µM (inactive) |  | 
